Experiments:
wheat = assay: Test B pre/postemergence wheat; format: in vivo, Triticum aestivum
How it was run: (§1)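 Response is a visual 0-to-10 score relative to untreated plants, where 0 means no effect and 10 means complete control, taken twelve to sixteen days after application. Treatments went onto soil at planting and onto foliage of 1- to 4-leaf plants, using a surfactant-containing non-phytotoxic solvent.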

blackgrass = assay: Test B pre/postemergence blackgrass; format: in vivo, Alopecurus myosuroides
How it was run: as §1

corn = assay: Test B pre/postemergence corn; format: in vivo, Zea mays
How it was run: as §1

smallflower flatsedge = assay: Test B flood test smallflower flatsedge; format: in vivo, Cyperus difformis
How it was run: (§2)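 Read-out is a visual response score from 0 (no effect) to 10 (complete control), assigned by comparison with untreated controls. Treatment was applied at the 2-leaf stage, and plants stayed in the greenhouse for twelve to sixteen days before scoring.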

bedstraw = assay: Test B pre/postemergence bedstraw; format: in vivo, Galium aparine
How it was run: as §1

morningglory = assay: Test B pre/postemergence morningglory; format: in vivo, Ipomoea hederacea
How it was run: as §1

soybean = assay: Test B pre/postemergence soybean; format: in vivo, Glycine max
How it was run: as §1

cocklebur = assay: Test B pre/postemergence cocklebur; format: in vivo, Xanthium strumarium
How it was run: as §1

rice = assay: Test B flood test rice; format: in vivo, Oryza sativa
How it was run: as §2

rape = assay: Test B pre/postemergence rape; format: in vivo, Brassica napus
How it was run: as §1

pigweed = assay: Test B pre/postemergence pigweed; format: in vivo, Amaranthus retroflexus
How it was run: as §1

surinam grass = assay: Test B pre/postemergence surinam grass; format: in vivo, Brachiaria decumbens
How it was run: as §1

giant foxtail = assay: Test B pre/postemergence giant foxtail; format: in vivo, Setaria faberii
How it was run: as §1

sugar beet = assay: Test B pre/postemergence sugar beet; format: in vivo, Beta vulgaris
How it was run: as §1

velvetleaf = assay: Test B pre/postemergence velvetleaf; format: in vivo, Abutilon theophrasti
How it was run: as §1

wild oat = assay: Test B pre/postemergence wild oat; format: in vivo, Avena fatua
How it was run: as §1

[1] = Preemergence, Rate 62 g/ha, scale of 0 to 10 where 0 is no effect and 10 is complete control
[2] = Preemergence, Rate 250 g/ha, scale of 0 to 10 where 0 is no effect and 10 is complete control
[3] = Preemergence, Rate 500 g/ha, scale of 0 to 10 where 0 is no effect and 10 is complete control
[4] = Rate 62 g/ha, Postemergence, scale of 0 to 10 where 0 is no effect and 10 is complete control
[5] = Rate 125 g/ha, Postemergence, scale 0 to 10
[6] = Rate 125 g/ha, Preemergence, scale of 0 to 10 where 0 is no effect and 10 is complete control
[7] = Rate 500 g/ha, Postemergence, scale 0 to 10, 0 no effect, 10 complete control
[8] = Rate 62 g/ha, headed Pre-emergence (flood test species), scale 0 to 10 (0 no effect, 10 complete control)
[9] = Rate 125 g/ha, Pre-emergence, flood test species, scale 0 to 10 where 0 is no effect and 10 is complete control
[10] = Rate 250 g/ha, Pre-emergence, flood-test species, scale 0 to 10, 0 is no effect, 10 is complete control
[11] = Rate 500 g/ha, Pre-emergence, flood test species, scale 0 to 10 (0 no effect, 10 complete control)

## CC(C)N(C(=O)n1oc(=O)n(CC2(C)COC2)c1=O)c1ccc(F)cc1 [Compound 226]
wheat; [1]
  Wheat plant response rating: 6
wheat; [2]
  Wheat plant response rating: 8
wheat; [3]
  Plant response rating, Wheat: 8
wheat; [4]
  Wheat plant response rating: 2
wheat; [5]
  Wheat plant response rating: 4
wheat; [6]
  Wheat plant response rating: 8
wheat; Rate 250 g/ha, Postemergence
  Plant response rating (0 to 10; 0 is no effect, 10 is complete control), Wheat: 7
wheat; [7]
  Wheat plant response rating: 9
blackgrass; [1]
  Blackgrass plant response rating: 10
blackgrass; [2]
  Blackgrass plant response rating: 10
blackgrass; [3]
  Plant response rating, Blackgrass: 10
blackgrass; [4]
  Blackgrass plant response rating: 0
blackgrass; [5]
  Blackgrass plant response rating: 5
blackgrass; [6]
  Blackgrass plant response rating: 10
blackgrass; Rate 250 g/ha, Postemergence
  Plant response rating (0 to 10; 0 is no effect, 10 is complete control), Blackgrass: 8
blackgrass; [7]
  Blackgrass plant response rating: 9
corn; [1]
  Corn plant response rating: 0
corn; [2]
  Corn plant response rating: 6
corn; [3]
  Plant response rating, Corn: 9
corn; [4]
  Corn plant response rating: 0
corn; [5]
  Corn plant response rating: 0
corn; [6]
  Corn plant response rating: 0
corn; Rate 250 g/ha, Postemergence
  Plant response rating (0 to 10; 0 is no effect, 10 is complete control), Corn: 0
corn; [7]
  Corn plant response rating: 6
Smallflower flatsedge; [8]
  S. Flatsedge plant response rating: 0
Smallflower flatsedge; [9]
  S. Flatsedge plant response rating: 0
Smallflower flatsedge; [10]
  S. Flatsedge plant response rating: 0
Smallflower flatsedge; [11]
  S. Flatsedge plant response rating: 0
bedstraw; [1]
  Bedstraw plant response rating: 0
bedstraw; [2]
  Bedstraw plant response rating: 0
bedstraw; [3]
  Plant response rating, Bedstraw: 0
bedstraw; [4]
  Bedstraw plant response rating: 0
bedstraw; [5]
  Bedstraw plant response rating: 3
bedstraw; [6]
  Bedstraw plant response rating: 0
bedstraw; Rate 250 g/ha, Postemergence
  Plant response rating (0 to 10; 0 is no effect, 10 is complete control), Bedstraw: 5
bedstraw; [7]
  Bedstraw plant response rating: 7
morningglory; [1]
  Morningglory plant response rating: 0
morningglory; [2]
  Morningglory plant response rating: 7
morningglory; [3]
  Plant response rating, Morningglory: 8
morningglory; [4]
  Morningglory plant response rating: 5
morningglory; [5]
  Morningglory plant response rating: 7
morningglory; [6]
  Morningglory plant response rating: 0
morningglory; Rate 250 g/ha, Postemergence
  Plant response rating (0 to 10; 0 is no effect, 10 is complete control), Morningglory: 7
morningglory; [7]
  Morningglory plant response rating: 7
soybean; [1]
  Soybean plant response rating: 0
soybean; [2]
  Soybean plant response rating: 0
soybean; [3]
  Plant response rating, Soybean: 0
soybean; [4]
  Soybean plant response rating: 2
soybean; [5]
  Soybean plant response rating: 2
soybean; [6]
  Soybean plant response rating: 0
soybean; Rate 250 g/ha, Postemergence
  Plant response rating (0 to 10; 0 is no effect, 10 is complete control), Soybean: 3
soybean; [7]
  Soybean plant response rating: 6
cocklebur; [1]
  Cocklebur plant response rating: 0
cocklebur; [2]
  Cocklebur plant response rating: 0
cocklebur; [3]
  Plant response rating, Cocklebur: 0
cocklebur; [4]
  Cocklebur plant response rating: 0
cocklebur; [5]
  Cocklebur plant response rating: 0
cocklebur; [6]
  Cocklebur plant response rating: 0
cocklebur; Rate 250 g/ha, Postemergence
  Plant response rating (0 to 10; 0 is no effect, 10 is complete control), Cocklebur: 0
cocklebur; [7]
  Cocklebur plant response rating: 2
rice; [8]
  Rice plant response rating: 0
rice; [9]
  Rice plant response rating: 0
rice; [10]
  Rice plant response rating: 0
rice; [11]
  Rice plant response rating: 0
rape; [1]
  Rape plant response rating: 0
rape; [2]
  Rape plant response rating: 7
rape; [3]
  Plant response rating, Rape: 10
rape; [4]
  Rape plant response rating: 0
rape; [5]
  Rape plant response rating: 0
rape; [6]
  Rape plant response rating: 0
rape; Rate 250 g/ha, Postemergence
  Plant response rating (0 to 10; 0 is no effect, 10 is complete control), Rape: 0
rape; [7]
  Rape plant response rating: 6
pigweed; [1]
  Redroot pigweed plant response rating: 0
pigweed; [2]
  Redroot pigweed plant response rating: 7
pigweed; [3]
  Plant response rating, Redroot pigweed: 9
pigweed; [4]
  Redroot pigweed plant response rating: 0
pigweed; [5]
  Redroot pigweed plant response rating: 0
pigweed; [6]
  Redroot pigweed plant response rating: 0
pigweed; Rate 250 g/ha, Postemergence
  Plant response rating (0 to 10; 0 is no effect, 10 is complete control), Redroot pigweed: 0
pigweed; [7]
  Redroot pigweed plant response rating: 0
Surinam grass; [1]
  B. signalgrass plant response rating: 3
Surinam grass; Preemergence, Rate 250 g/ha, scale 0 to 10, 0 is no effect, 10 is complete control
  B. signalgrass plant response rating: 9
Surinam grass; [3]
  Plant response rating, B. signalgrass: 10
Surinam grass; [4]
  B. signalgrass plant response rating: 0
Surinam grass; Rate 125 g/ha, Postemergence, scale 0 (no effect) to 10 (complete control)
  B. signalgrass plant response rating: 2
Surinam grass; [6]
  B. signalgrass plant response rating: 6
Surinam grass; Rate 250 g/ha, Postemergence
  Plant response rating (0 to 10; 0 is no effect, 10 is complete control), B. signalgrass: 6
Surinam grass; [7]
  B. signalgrass plant response rating: 9
Giant foxtail; [1]
  Giant foxtail plant response rating: 9
Giant foxtail; [2]
  Giant foxtail plant response rating: 10
Giant foxtail; [3]
  Plant response rating, Giant foxtail: 10
Giant foxtail; [4]
  Giant foxtail plant response rating: 2
Giant foxtail; [5]
  Giant foxtail plant response rating: 7
Giant foxtail; [6]
  Giant foxtail plant response rating: 10
Giant foxtail; Rate 250 g/ha, Postemergence
  Plant response rating (0 to 10; 0 is no effect, 10 is complete control), Giant foxtail: 7
Giant foxtail; [7]
  Giant foxtail plant response rating: 7
Sugar beet; [1]
  Sugarbeets plant response rating: 0
Sugar beet; [2]
  Sugarbeets plant response rating: 5
Sugar beet; [3]
  Plant response rating, Sugarbeets: 6
Sugar beet; [4]
  Sugarbeets plant response rating: 0
Sugar beet; [5]
  Sugarbeets plant response rating: 0
Sugar beet; [6]
  Sugarbeets plant response rating: 3
Sugar beet; Rate 250 g/ha, Postemergence
  Plant response rating (0 to 10; 0 is no effect, 10 is complete control), Sugarbeets: 0
Sugar beet; [7]
  Sugarbeets plant response rating: 2
velvetleaf; [1]
  Velvetleaf plant response rating: 2
velvetleaf; [2]
  Velvetleaf plant response rating: 6
velvetleaf; [3]
  Plant response rating, Velvetleaf: 7
velvetleaf; [4]
  Velvetleaf plant response rating: 0
velvetleaf; [5]
  Velvetleaf plant response rating: 0
velvetleaf; [6]
  Velvetleaf plant response rating: 5
velvetleaf; Rate 250 g/ha, Postemergence
  Plant response rating (0 to 10; 0 is no effect, 10 is complete control), Velvetleaf: 0
velvetleaf; [7]
  Velvetleaf plant response rating: 0
Wild oat; [1]
  Wild oats plant response rating: 1
Wild oat; [2]
  Wild oats plant response rating: 9
Wild oat; [3]
  Plant response rating, Wild oats: 10
Wild oat; [4]
  Wild oats plant response rating: 0
Wild oat; [5]
  Wild oats plant response rating: 0
Wild oat; [6]
  Wild oats plant response rating: 3
Wild oat; Rate 250 g/ha, Postemergence
  Plant response rating (0 to 10; 0 is no effect, 10 is complete control), Wild oats: 0
Wild oat; [7]
  Wild oats plant response rating: 3

Source: patent publication US6737383B1, “Herbicidal oxadiazolidines” (priority 1999, dated 2004)
